Data: PMC7024217, “Study on Structure Activity Relationship of Natural Flavonoids against Thrombin by Molecular Docking Virtual Screening Combined with Activity Evaluation In Vitro” (Molecules, 2020)
Read-outs that look alike come from different tables or passages of the source.

Biological target: T1, bovine thrombin (Bos taurus, UniProt P00735)
T1 construct: bovine thrombin and argatroban were purchased from Sigma-Aldrich; purchased Sigma-Aldrich (St. Louis, MO, USA)
Assay: Thrombin inhibitory activity assay (chromogenic substrate S-2238);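 note: microplate absorbance read-out, thrombin preincubated with test compound 5 min at 37 °C in PBS pH 7.2-7.4, inhibition relative to blank without compound after subtracting compound-only background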
Type: biochemical
Conditions: for Group (inhibitor class) / inhibitor class: class by anti-thrombin IC50

[1] = Table 1, anti-thrombin, substrate S-2238 4 mg/mL, read-out: IC50
[2] = Table 2, anti-thrombin, read-out: IC50 ±SD
[3] = thrombin inhibition, substrate 4 mg/mL, read-out: IC50

IC50 [1] | Group (inhibitor class) (Table 2) | Compound | inhibitor class | also measured
 | Strong inhibitor | O=c1cc(-c2ccc(O)cc2)oc2cc(O)cc(O)c12 [Apigenin] |  | 
217 ± 5 µM |  | O=c1c(OC2OC(CO)C(O)C(O)C2O)c(-c2ccc(O)cc2)oc2cc(O)cc(O)c12 (stereo not drawn) [Astragaline] | weak thrombin inhibitors (classified as weak thrombin inhibitors since their IC50 values ranged from 200 μM to 500 μM) | 
249 ± 31 µM |  | O=c1cc(-c2ccccc2)oc2cc(O)c(O)c(O)c12 [Baicalein] | weak thrombin inhibitors (classified as weak thrombin inhibitors since their IC50 values ranged from 200 μM to 500 μM) | 
> 500 µM |  | O=C1c2c(O)cc(O)cc2O[C@H](c2cc(O)c(O)c(O)c2)[C@H]1O [Dihydromyricetin] |  | 
> 500 µM |  | O=C1c2c(O)cc(O)cc2O[C@H](c2ccc(O)c(O)c2)[C@H]1O [Dihydroquercetin] |  | 
 | Moderate inhibitor | COc1ccc(-c2cc(=O)c3c(O)cc(O)cc3o2)cc1O [Diosmetin] | moderate inhibitors (compounds with IC50 value ranging from 100 μM to 200 μM were considered as moderate inhibitors) | 
175 ± 18 µM | Moderate inhibitor | O=c1c(O)c(-c2ccc(O)c(O)c2)oc2cc(O)ccc12 [Fisetin] | moderate inhibitors (compounds with IC50 value ranging from 100 μM to 200 μM were considered as moderate inhibitors) | 
159 µM | Moderate inhibitor | O=c1c(O)c(-c2ccccc2)oc2cc(O)cc(O)c12 [Galangin] | moderate inhibitors (compounds with IC50 value ranging from 100 μM to 200 μM were considered as moderate inhibitors) | IC50 [2]: 159 µM
212 ± 30 µM |  | COc1cc(O)c2c(=O)cc(-c3ccc(O)cc3)oc2c1 [Genkwanin] | weak thrombin inhibitors (classified as weak thrombin inhibitors since their IC50 values ranged from 200 μM to 500 μM) | IC50 [3]: 211 µM
133 ± 4 µM | Moderate inhibitor | O=c1c(O)c(-c2ccc(O)cc2)oc2c(O)c(O)cc(O)c12 [Herbacetin] | moderate inhibitors (compounds with IC50 value ranging from 100 μM to 200 μM were considered as moderate inhibitors) | IC50 [2]: 133 ± 4 µM
99.7 ± 5.5 µM | Strong inhibitor | COc1cc(O)c2c(=O)cc(-c3ccc(O)c(O)c3)oc2c1 [Hydroxygenkwanin] |  | IC50 [2]: 99.7 ± 5.5 µM
> 500 µM |  | O=c1c(O[C@@H]2O[C@H](CO)[C@@H](O)[C@H](O)[C@H]2O)c(-c2ccc(O)c(O)c2)oc2cc(O)cc(O)c12 [Isoquercitrin] |  | 
> 500 µM |  | O=c1c(O)c(-c2ccc(O)cc2)oc2cc(O[C@@H]3O[C@H](CO)[C@@H](O)[C@H](O)[C@H]3O)cc(O)c12 [Kaempferol-7-O-β-D-glucopyranoside] |  | 
107 ± 2 µM | Moderate inhibitor | O=c1c(O)c(-c2ccc(O)cc2)oc2cc(O)cc(O)c12 [Kaempferol] | moderate inhibitors (compounds with IC50 value ranging from 100 μM to 200 μM were considered as moderate inhibitors) | IC50 [2]: 107 ± 2 µM
146 ± 10 µM | Moderate inhibitor | O=c1cc(-c2ccc(O)c(O)c2)oc2cc(O)cc(O)c12 [Luteolin] | moderate inhibitors (compounds with IC50 value ranging from 100 μM to 200 μM were considered as moderate inhibitors) | 
237 ± 26 µM |  | O=c1c(O)c(-c2ccc(O)cc2O)oc2cc(O)cc(O)c12 [Morin] | weak thrombin inhibitors (classified as weak thrombin inhibitors since their IC50 values ranged from 200 μM to 500 μM) | 
> 500 µM |  | O=C1C[C@@H](c2ccc(O)cc2)Oc2cc(O)cc(O)c21 [Naringenin] |  | 
> 500 µM |  | C[C@@H]1O[C@@H](Oc2c(-c3ccc(O)c(O)c3)oc3cc(O)cc(O)c3c2=O)[C@H](O)[C@H](O)[C@H]1O [Quercitrin] |  | 
70.8 ± 2.7 µM | Strong inhibitor | O=c1cc(-c2ccc(O)cc2)oc2cc(O)c(O)c(O)c12 [Scutellarein] |  | IC50 [2]: 70.8 ± 2.7 µM; IC50 [3]: < 100 µM

Continued, compound first:

Compound | IC50 [1] | Group (inhibitor class) (Table 2) | inhibitor class | also measured
O=C(OC1Cc2c(O)cc(O)cc2OC1c1ccc(O)c(O)c1)c1cc(O)c(O)c(O)c1 (single isomer, unassigned; (-)) [(-)-Epicatechin gallate] | > 500 µM |  |  | 
Oc1cc(O)c2c(c1)OC(c1cc(O)c(O)c(O)c1)C(O)C2 (single isomer, unassigned; (-)) [(-)-epigallocatechin] |  |  |  | IC50 (IC50): > 500 µM
O=C(O)[C@H]1O[C@@H](Oc2cc3oc(-c4ccccc4)cc(=O)c3c(O)c2O)[C@H](O)[C@@H](O)[C@@H]1O [Baicalin] | 88.6 ± 8.2 µM | Strong inhibitor |  | IC50 [2]: 88.6 ± 8.2 µM
Oc1cc(O)c2c(c1)O[C@H](c1ccc(O)c(O)c1)[C@H](O)C2 [Epicatechin] | > 500 µM |  |  | 
COc1ccc([C@@H]2CC(=O)c3c(O)cc(O)cc3O2)cc1O [Hesperetin] | > 500 µM |  |  | 
COc1ccc([C@@H]2CC(=O)c3c(O)cc(O[C@@H]4O[C@H](CO[C@@H]5O[C@@H](C)[C@H](O)[C@@H](O)[C@H]5O)[C@@H](O)[C@H](O)[C@H]4O)cc3O2)cc1O [Hesperidin] | > 500 µM |  |  | 
COc1c(O)cc2oc(-c3ccc(O)cc3)cc(=O)c2c1O [Hispidulin] | 126 ± 6 µM | Moderate inhibitor | moderate inhibitors (compounds with IC50 value ranging from 100 μM to 200 μM were considered as moderate inhibitors) | IC50 [2]: 126 ± 6 µM
COc1cc(-c2oc3cc(O)cc(O)c3c(=O)c2OC2OC(CO)C(O)C(O)C2OC2OC(C)C(O)C(O)C2O)ccc1O (stereo not drawn) [Isorhamnetin-3-O-neohesperidoside] | > 500 µM |  |  | 
COc1cc(-c2oc3cc(O)cc(O)c3c(=O)c2O)ccc1O [Isorhamnetin] |  | Strong inhibitor |  | 
O=c1cc(-c2ccc(O)c(O)c2)oc2cc(O[C@@H]3O[C@H](CO)[C@@H](O)[C@H](O)[C@H]3O)cc(O)c12 [Luteoloside] | 155 ± 18 µM | Moderate inhibitor | moderate inhibitors (compounds with IC50 value ranging from 100 μM to 200 μM were considered as moderate inhibitors) | IC50 [2]: 155 ± 18 µM
C[C@@H]1O[C@@H](O[C@H]2[C@H](Oc3cc(O)c4c(c3)O[C@H](c3ccc(O)cc3)CC4=O)O[C@H](CO)[C@@H](O)[C@@H]2O)[C@H](O)[C@H](O)[C@H]1O [Naringin] | 444 ± 59 µM |  | weak thrombin inhibitors (classified as weak thrombin inhibitors since their IC50 values ranged from 200 μM to 500 μM) | 
C[C@@H]1O[C@@H](OC[C@H]2O[C@@H](Oc3cc(O)c4c(c3)O[C@H](c3ccc(O)cc3)CC4=O)[C@H](O)[C@@H](O)[C@@H]2O)[C@H](O)[C@H](O)[C@H]1O [Narirutin] | > 500 µM |  |  | 
COc1ccc([C@@H]2CC(=O)c3c(O)cc(O[C@@H]4O[C@H](CO)[C@@H](O)[C@H](O)[C@H]4O[C@@H]4O[C@@H](C)[C@H](O)[C@@H](O)[C@H]4O)cc3O2)cc1O [Neohesperidin] | > 500 µM |  |  | 
Oc1cc(O)c2c(c1)OC(c1ccc(O)c(O)c1)C(O)C2c1c(O)cc(O)c2c1OC(c1ccc(O)c(O)c1)C(O)C2 (stereo not drawn) [Proanthocyanidin B1] | > 500 µM |  |  | 
O=c1c(O)c(-c2ccc(O)c(O)c2)oc2cc(O)cc(O)c12 [Quercetin] |  |  | weak thrombin inhibitors (classified as weak thrombin inhibitors since their IC50 values ranged from 200 μM to 500 μM) | 
C[C@@H]1O[C@@H](OC[C@H]2O[C@@H](Oc3c(-c4ccc(O)c(O)c4)oc4cc(O)cc(O)c4c3=O)[C@H](O)[C@@H](O)[C@@H]2O)[C@H](O)[C@H](O)[C@H]1O [Rutin] | 274 ± 23 µM |  | weak thrombin inhibitors (classified as weak thrombin inhibitors since their IC50 values ranged from 200 μM to 500 μM) | 
COc1cc(-c2oc3cc(O)cc(O)c3c(=O)c2O[C@@H]2O[C@H](CO[C@@H]3O[C@@H](C)[C@H](O)[C@@H](O)[C@H]3O)[C@@H](O)[C@H](O)[C@H]2O[C@@H]2O[C@@H](C)[C@H](O)[C@@H](O)[C@H]2O)ccc1O [Typhaneoside] | > 500 µM |  |  | 
COc1c(O[C@@H]2O[C@H](C(=O)O)[C@@H](O)[C@H](O)[C@H]2O)cc(O)c2c(=O)cc(-c3ccccc3)oc12 [Wogonoside] | > 500 µM |  |  | 
Myricitrin |  | Strong inhibitor |  | 
